Assay results reported in patent publication US12655111B2, “Phenazine-based compounds” (CMBLU Energy AG, priority 2020, dated 2026).

Assay: Redox flow battery cell test (flow-through laboratory cell), galvanostatic charge/discharge cycling with phenazine anolyte and ferrocyanide catholyte
Type: physicochemical
Settings: range: (i) upper charging value minus initial discharging value, (ii) initial charging value minus ultimate discharging value; from Table 1 (for II 0.87M)
Description: FT-Cells (“Flow Through”):
For electrochemical characterization, a small laboratory cell was used. A graphite felt (with an area of 6 cm^2, 6 mm in thickness, supplier: SGL Sigracell GFA 6EA) in combination with a bipolar plate (4.1 cm×4.1 cm, SGL Sigracell TF6) was employed as both the positive and negative electrode. A cation exchange membrane (630K or 620PE, supplier: fumatech) was used to separate the positive and negative electrolytes. The membrane was conditioned in 0.5 M Base (KOH/NaOH=50 mol %/50 mol %) for at least 150 h prior to each test. An anolyte volume of 12 mL was used for every experiment while the pH of the anolyte solution is adjusted using a 1:1 mixture of KOH/NaOH or solely KOH. The catholyte compositions are listed in table 1 and the catholyte was always employed in at least 1.05 fold stoichiometric excess in order to obtain charge limitation solely due to the phenazine electrolyte (see table 1). The catholyte volume for (IV) is 60 mL (0.4 M KOH; 0.4 M NaOH), for (III) 30 mL (0.2 M KOH and 0.2 M NaOH), and for (I) 20 mL (0.3 M KOH and 0.3 M NaOH). Both electrolytes were pumped by peristaltic pumps (Drifton BT100-1L, Cole Parmer Ismatec MCP and BVP Process IP 65) at a rate of 24 mL/min to the corresponding electrodes, respectively. The electrolyte reservoirs were purged with N2 gas for 1 h before start of charging and the inert atmosphere was maintained during the course of the experiments.
Electrochemical testing was performed on a BaSyTec (BaSyTec GmbH, 89176 Asselfingen, Germany) or a Bio-Logic (Bio-Logic Science Instruments, Seyssinet-Pariset 38170, France) battery test system. For galvanostatic cycling, the cell was charged at a current density of […] and discharged at the same current density with the in table 1 listed voltage cut-offs. […]

Compound	difference in plateaus [V]
O=S(=O)(O)c1ccc2nc3cc(O)c(O)cc3nc2c1 [DHPS, 7,8-Dihydroxyphenazine-2-sulfonic acid, reference compound]	0.29-0.32 V
CN(C)c1cc2nc3ccc(S(=O)(=O)O)cc3nc2cc1O [I, 7-(dimethylamino)-8-hydroxyphenazine-2-sulfonic acid]	0.15-0.16 V
CN(CCO)c1cc2nc3ccc(S(=O)(=O)O)cc3nc2cc1O [IV, 7-[(2-hydroxyethyl)(methyl)amino]-8-hydroxyphenazine-2-sulfonic acid]	0.20-0.25 V
